According to US5310741A, “TAN-1251 compounds and their production from penicillium thomii” (Takeda Chemical Industries, Ltd., priority 1990, dated 1994):

How the values were obtained:
[1] = system: mice; assay: Acute toxicity, oral administration in mice; type: in vivo; conditions: 100 mg/kg
Method: For assessment of the acute toxicity of TAN-1251, an oral administration experiment using TAN-1251A and B was performed in mice.

[2] = type: physicochemical
Excerpt: Below presented as the physicochemical properties of the respective species of TAN-1251 prepared in the Examples given hereinafter.

[3] = system: acetylcholine-induced contraction of the isolated Guinea pig ileum; assay: Antagonizing activity against acetylcholine-induced contraction of the isolated Guinea pig ileum; parameters: species or system Guinea pig (Std Hartley); conditions: Cavia porcellus, 5 min; acetylcholine 1×10^-7 M, 37° C., 5 minutes equilibration; read-out: Guinea pig ileal contractility ED50 (50% inhibition of the maximal contraction)
Method: (b) Antagonizing activity against acetylcholine-induced contraction of the isolated Guinea pig ileum
A Guinea pig (Std Hartley, male, 250 g, Japan SLC) deprived of food for 24 hours was subjected to brain concussion and after exsanguination from the carotid artery, the ileum was isolated. An ileal strip, about 3 cm long, was prepared and suspended in a Magnus tube containing 20 ml of Tyrode solution. At a constant bath temperature of 37° C., a mixed gas (95% O2 -5% CO2) was bubbled through the bath. The sample was added and after 5 minutes of equillibration, acetylcholine (Daiichi Seiyaku, Japan) was added at a final concentration of 1×10^-7 M to induce contraction of the ileal strip. The contraction was recorded through an isotonic transducer (ME-4013, Suruga Electronics, Japan) on a recorder (Rectiholy 8K, Japan Electronics Sanei, Japan). The activity of the same was expressed in ED50 representing 50% inhibition of the maximal contraction.

[4] = target: Muscarinic receptor; type: binding, Wistar rat; conditions: 3H-QNB radioligand, room temperature, 60 minutes; read-out: Radio receptor assay IC50

SMILES | toxic signs (acute toxicity) [1] | Properties (basicity and liposolubility) [2] | IC50 [3] [nM] | IC50 [4] [nM]
CC(C)=CCOc1ccc(C=C2CN(C)C3CN2C2(CCC(=O)CC2)C3)cc1 (stereo not shown) [Compound 1] | no toxic signs were observed | Basic and liposoluble | 8 | 5.7
CC(C)=CCOc1ccc(C=C2CN(C)C3CN2C2(CCC(=O)C(O)C2)C3)cc1 (stereo not shown) [Compound 2] | no toxic signs were observed | Basic and liposoluble | 13 | 0.13
CC(C)=CCOc1ccc(CC2=CN(C)C3CN2C2(CCC(=O)CC2)C3)cc1 (stereo not shown) [Compound 3] |  | Basic and liposoluble |  | 
CC(C)=CCOc1ccc(CC2CN(C)C3CN2C2(CCC(=O)CC2)C3)cc1 (stereo not shown) [Compound 4] |  | Basic and liposoluble |  | 
